From PMC9814779, “A triple farnesoid X receptor and peroxisome proliferator-activated receptor α/δ activator reverses hepatic fibrosis in diet-induced NASH in mice” (Communications Chemistry, 2020)

Experiments:
[1] = test system: DIO NASH; settings: cited from earlier work
[2] = test system: diet-induced mouse model of NASH; settings: cited from earlier work
[3] = Microsomal stability assay; type: in vitro ADME, rat
[4] = test system: FXR- and PPAR-regulated genes in mouse liver; test: Pilot animal experiment: hepatic FXR- and PPAR-regulated mRNA expression; type: in vivo, mice; settings: single oral dose 10 mg/kg
Procedure: Nine male RjOrl:Swiss (CD-1) mice (38–41 g body weight, purchased from Janvier Labs, France) were used for the pilot in vivo study. […] Food and water were available ad libitum. The in-life phase was performed by the contract research organization Pharmacelsus (Saarbrücken, Germany). All experimental procedures were approved by and conducted in accordance with the regulations of the local Animal Welfare authorities (Landesamt für Gesundheit und Verbraucherschutz, Abteilung Lebensmittel- und Veterinärwesen, Saarbrücken). Six animals received a single oral dose of 10 mg/kg body weight of 41, and three animals received the vehicle. Water containing 1% hydroxypropyl methylcellulose (HPMC)/Tween 80 (99:1) served as vehicle.
Twelve or 18 hours after test compound application, mice were anesthetized under isoflurane and then sacrificed by cervical dislocation for tissue collection. Complete livers were obtained, immediately snap-frozen, and stored at −80 °C until further evaluation.
Liver tissue samples from mice were used to study the mRNA expression of FXR- and PPAR-regulated genes. To homogenize the tissue samples for qRT-PCR analysis, one-third of each liver was placed on a Falcon Cell Strainer with 40-μm pore size (BD Bioscience, Erembodegem, Belgium) in a 50-mL Falcon tube. Every tissue was rinsed with PBS buffer containing 10% FCS, penicillin (100 U/mL), and streptomycin (100 μg/mL) and pressed through the cell strainer until 5 mL cell suspension had been collected. The samples were centrifuged at 1200 rpm for 10 min at 4 °C. […] Two micrograms per sample of the extracted RNA were reverse-transcribed into cDNA using the High-Capacity cDNA Reverse Transcription Kit (4368814, Thermo Fischer Scientific, Inc.) according to the manufacturer’s protocol. mRNA expression was studied by quantitative real-time PCR analysis with a StepOnePlus System (Applied Biosystems) based on the 2^−ΔCT method (Supplementary Fig. 6) or the 2^−ΔΔCT method (Fig. 6) using Power SYBR Green PCR Master Mix (Life Technologies). […]

[5] = test system: nuclear receptors related to PPARs and FXR (LXRα/β, RXRα/β/γ, RARα/β/γ, VDR, CAR); test: Selectivity screening among nuclear receptors (Gal4 hybrid reporter gene assays); type: cell-based, human; settings: three independent experiments
Excerpt: (§1) For the hybrid reporter gene assays, the previously reported Gal4-fusion receptor plasmids pFA-CMV-hPPARα-LBD[29], pFA-CMV-hPPARδ-LBD[29], pFA-CMV-hPPARγ-LBD[29], pFA-CMV-hLXRα-LBD[30], pFA-CMV-hLXRβ-LBD[30], pFA-CMV-hRXRα-LBD[31], pFA-CMV-hRXRβ-LBD[31], pFA-CMV-hRXRγ-LBD[31], pFA-CMV-hRARα-LBD[31], pFA-CMV-hRARβ-LBD[31], pFA-CMV-hRARγ-LBD[31], pFA-CMV-hVDR-LBD[31], and pFA-CMV-hCAR-LBD[31] coding for the hinge region and LBD of the canonical isoform of the respective nuclear receptor were used. pFR-Luc (Stratagene) was used as reporter plasmid for Gal4 hybrid reporter gene assays. pcDNA3-hFXR[32] and pSG5-hRXR[33] served for receptor overexpression in the full-length FXR assay and pGL3basic (Promega Corporation, Fitchburg, WI, USA) with a shortened construct of the BSEP promoter cloned into the SacI/NheI cleavage site in front of the luciferase gene[34] was used as reporter. PPRE-pGL3[35] contains the human full-length PPRE (cloned into the SacI/NheI cleavage site in front of the luciferase gene) and was used as reporter plasmid for the full-length PPRE reporter gene assay. pRL-SV40 (Promega) was used in all assays for normalization of transfection efficiency and cell growth.
(§2) Before transfection, medium was changed to Opti-MEM without supplements. […] Luminescence was measured with a Spark 10 M luminometer (Tecan Deutschland GmbH). […]

[6] = test system: human full-length PPAR response element (PPRE) reporter; test: Full-length PPAR response element (PPRE) reporter gene assay in HEK293T cells; type: cell-based; settings: HEK-293T, mean ± SEM, n = 3
Excerpt: as §1, §2

[7] = 10 μM, rat liver microsomes, 37 °C, 41 n = 3, 7-EC n = 1

## CC[C@H]1[C@@H](O)[C@@H]2[C@H](CC[C@]3(C)[C@@H]([C@H](C)CCC(=O)O)CC[C@@H]23)[C@@]2(C)CC[C@@H](O)C[C@@H]12 [OCA, 6α-ethylchenodeoxycholic acid, reference compound]
[1]
  effects in DIO NASH: pronounced anti-steatotic activity and slight anti-fibrotic effects
[2]; OCA 30 mg/kg, OCA/elafibranor 30 mg/kg + 10 mg/kg, elafibranor 10 mg/kg
  anti-steatotic effect: marked reductions in steatosis
[2]; equivalent, previously reported study
  anti-fibrotic activity: only weak anti-fibrotic activity compared to vehicle

## CC(C)(C)c1ccc(C(=O)Nc2cccc(CCC(=O)O)c2)c(NC(=O)c2ccc(-c3ccco3)cc2)c1 [compound 41, 3-(3-[4-{tert-Butyl}-2-{4-(2-furyl)}benzamido]phenyl)propanoic acid]
[3]; [7]
  percent of remaining compound, 15 min: 95 ± 3%
  percent of remaining compound, 30 min: 95 ± 2%
  percent of remaining compound, 60 min: 93 ± 2%
[3]; in words
  stability against microsomal degradation: very high stability against microsomal degradation
[4]
  adverse effects, behaviour: no adverse effects
[4]; 12 h after treatment, vs. vehicle
  hepatic expression of BSEP, SHP, LPL, PCK and CRAT, 12 h: increased
[4]; after 18 h
  effect on FXR- and PPAR-regulated gene expression in livers, 18 h: significantly reduced
[5]
  selectivity among nuclear receptors related to PPARs and FXR: no off-target liability
[6]
  EC50: 170 nM
